Literature values as cited in US20060134244A1, “Breast health supplement and detoxification preparations” (priority 2004, published 2006).

Key:
[1] = test system: precancerous lesions of the cervix and laryngeal papillomas; conditions: pathologies with a human papillomavirus (HPV); reported
[2] = oral administration; reported

SMILES | clinical effectiveness in treating precancerous lesions of the cervix and laryngeal papillomas [1] | unabsorbed EDTA that remains within the digestive tract [2] [%]
c1ccc2c(Cc3c[nH]c4ccccc34)c[nH]c2c1 [DIM, 3,3′-diindolylmethane] | clinically effective | 
O=C(O)CN(CCN(CC(=O)O)CC(=O)O)CC(=O)O [EDTA, ethylenediamine-N,N,N′,N′-tetraacetic acid] |  | 95
OCc1c[nH]c2ccccc12 [Example I3C, indole-3-carbinol] | clinically effective | 
